In ChEMBL document CHEMBL3639243, “Oxadiazole derivative having endothelial lipase inhibitory activity” (2014):
pIC50: −log10 of the molar value.

Target: T1, Endothelial lipase (Homo sapiens, UniProt Q9Y5X9)
T1 sequence (Q9Y5X9 whole entry): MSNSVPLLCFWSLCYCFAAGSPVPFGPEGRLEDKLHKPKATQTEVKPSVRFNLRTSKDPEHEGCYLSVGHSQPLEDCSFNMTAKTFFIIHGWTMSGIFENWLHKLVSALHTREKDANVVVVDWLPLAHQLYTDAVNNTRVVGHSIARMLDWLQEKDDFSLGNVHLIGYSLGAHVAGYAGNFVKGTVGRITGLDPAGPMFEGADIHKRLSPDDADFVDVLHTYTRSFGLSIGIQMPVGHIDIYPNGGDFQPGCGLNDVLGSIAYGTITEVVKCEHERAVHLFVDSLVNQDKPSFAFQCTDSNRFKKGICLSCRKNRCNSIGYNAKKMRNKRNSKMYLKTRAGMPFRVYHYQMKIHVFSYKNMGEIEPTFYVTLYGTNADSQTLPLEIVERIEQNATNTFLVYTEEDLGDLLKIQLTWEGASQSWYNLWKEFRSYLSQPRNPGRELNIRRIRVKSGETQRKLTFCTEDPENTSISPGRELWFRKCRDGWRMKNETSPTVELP
Assay: Inhibition Assay: After the present compound dissolved in DMSO was added to become 0.5% DMSO to the reaction buffer consisting of 20 mM tris hydrochloric acid (pH7.4), bovine serum albumin (0.5%), calcium chloride (4 mM), sodium chloride (150 mM) and human HDL (2 mg/ml), the EL enzyme was added (total volume was 20 μl). After 4-hour reaction at 37 C., non-esterified fatty acid (NEFA) generated from HDL by EL was measured with a commercially available assay kit and the amount of NEFA was used as an index of enzyme activity. Considering the enzyme activity without the inhibitor as a control value, the inhibition rate of each concentration of the present compound was calculated, and 50% inhibitory concentration (IC50 value) was calculated from an inhibition curve.

pIC50: 7.85
SMILES: N#CC1(NC(=O)Cc2nnc(Cc3nc4ccc(-c5ccc(Cl)s5)c(F)c4s3)o2)CC1
